Experimental data: patent US20230129258A1, “HETEROTANDEM BICYCLIC PEPTIDE COMPLEXES” (BicycleTx Limited, priority 2019, published 2023)
Where “and” joins values, the source holds several entries; their conditions need not be identical. Equal entries are not always repeated. Where two headings read alike, the source gives them in different places. Starred links: 1 amine or outer side, 2 acyl side, 3 side chain; linkers in the order of their positions; H or OH if unused. Positions of bridges follow the written chain, without caps; N, C: chain ends. Non-standard residues stand in square brackets, D forms with d. Chains are numbered I, II in the order given. X1 = O=C(CCOCCOCCOCCN(CCOCCOCCOCCn1cc(CCC(=O)[*:2])nn1)CCOCCOCCOCCn1cc(CCC(=O)[*:3])nn1)[*:1]; TATA = O=C(CC[*:1])N1CN(C(=O)CC[*:2])CN(C(=O)CC[*:3])C1; d1Nal = N[C@H](Cc1cccc2ccccc12)C(=O)O; Hyp = O=C(O)[C@@H]1C[C@@H](O)CN1; hArg = N=C(N)NCCCC[C@H](N)C(=O)O; tBuAla = CC(C)(C)C[C@H](N)C(=O)O; Nle = CCCC[C@H](N)C(=O)O

How the values were obtained:
rat Nectin-4 = biological target: T1, rat Nectin-4 (Rattus norvegicus, UniProt D3ZET1); assay: Multicomponent SPR: Nectin-4 binding to complex captured on biotinylated human CD137, rat Nectin-4
T1 construct: extracellular domain using biotinylated human
From the text: (§1) To understand whether the binding of BCY11863 to Nectin-4 was altered in the context of the ternary complex, i.e. when also bound to CD137, a multicomponent SPR binding assay was developed. BCY11863 was first captured to human CD137 immobilized on the SPR chip surface and then Nectin-4 from different species were passed over the chip to determine their affinities to the captured BCY11863 (see FIG. 21C). The affinities to Nectin-4 were generally maintained in the presence of CD137 binding as shown below: […]

human PBMCs = assay: Human PBMC-tumor cell co-culture (cytokine stimulation) assay with Nectin-4-expressing tumor cells; format: cell-based
Method: Tumor cell lines were cultured according to suppliers recommended protocol. Frozen PBMCs from healthy human donors were thawed and washed one time in room temperature PBS, and then resuspended in R10 medium. 100 μl of PBMCs (1,000,000 PBMCs/ml) and 100 μl of tumor cells (100,000 tumor cells/ml) (Effector:Target cell ratio (E:T) 10:1) were plated in each well of a 96 well flat bottom plate for the co-culture assay. 100 ng/ml of soluble anti-CD3 mAb (clone OKT3) was added to the culture on day 0 to stimulate human PBMCs. Test, control compounds, or vehicle controls were diluted in R10 media and 50 μL was added to respective wells to bring the final volume per well to 250 μL. Plates were covered with a breathable film and incubated in a humidified chamber at 37° C. with 5% CO2 for […]. Supernatants were collected 48 hours after stimulation, and human IL-2 and IFN-γ were detected by Luminex. Briefly, the standards and samples were added to black 96 well plate. Microparticle cocktail (provided in Luminex kit, R&D Systems) was added and shaken for 2 hours at room temperature. The plate was washed 3 times using magnetic holder. Biotin cocktail was then added to the plate and shaken for 1 hour at RT. The plate was washed 3 times using magnetic holder. Streptavidin cocktail was added to the plate and shaken for 30 minutes at RT. The plates were washed 3 times using magnetic holder, resuspended in 100 μL of wash buffer, shaken for 2 minutes at RT, and read using the Luminex 2000. Raw data were analyzed using built-in Luminex software to generate standard curves and interpolate protein concentrations, all other data analyses and graphing were performed using Excel and Prism software. […]

[1] = Pharmacokinetics in SD rats; format: in vivo; details: for half-life: iv
Method in brief: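 Male SD rats received the heterotandem Bicycle complex IV bolus or 15-min IV infusion in 25 mM histidine HCl, 10% sucrose pH 7. Serial K2-EDTA plasma analysed by LC-MS/MS (Orbitrap, positive mode); parameters from non-compartmental analysis.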

cyno Nectin-4 [2] = assay: Multicomponent SPR: Nectin-4 binding to complex captured on biotinylated human CD137, cyno Nectin-4; details: Sandwich Assay, Nectin-4 ECD, biotinylated human CD137 as capture reagent; read-out: SPR KD NHP
From the text: as §1

cyno Nectin-4 [3] = assay: SPR direct binding to biotinylated Nectin-4 extracellular domain, cyno
From the text: The binding of BCY11863 to its primary target Nectin-4 and CD137 was characterized using surface plasmon resonance (SPR).

CD137 = CD137 (Homo sapiens, UniProt Q07011); assay: CD137 reporter assay (Promega, Jurkat cells) in co-culture with EphA2-expressing tumor cells (A549, PC3, HT29); format: cell-based; set-up: host or cells: Jurkat reporter cells; details: for EC50: EC50 (nM); for EC50 / Emax: individual replicates
Method in brief: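 Promega CD137 luciferase reporter Jurkat cells co-cultured with tumor cells (RKO for PD-L1; A549, PC3, HT29 for EphA2) and serially diluted test articles in RPMI + 1% FBS, 6 h at 37° C. Bio-Glo luminescence as fold change over cells alone; log(agonist)-response fit gives EC50 (nM) and max fold induction.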

Sequence of CD137 (Q07011 24-255): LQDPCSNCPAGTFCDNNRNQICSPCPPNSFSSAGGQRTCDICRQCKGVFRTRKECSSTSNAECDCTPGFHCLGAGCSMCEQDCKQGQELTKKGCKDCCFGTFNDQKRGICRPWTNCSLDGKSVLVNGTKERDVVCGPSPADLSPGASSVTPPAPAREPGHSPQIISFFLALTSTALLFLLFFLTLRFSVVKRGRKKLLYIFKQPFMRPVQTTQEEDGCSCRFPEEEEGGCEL
T1 sequence (D3ZET1 31-509): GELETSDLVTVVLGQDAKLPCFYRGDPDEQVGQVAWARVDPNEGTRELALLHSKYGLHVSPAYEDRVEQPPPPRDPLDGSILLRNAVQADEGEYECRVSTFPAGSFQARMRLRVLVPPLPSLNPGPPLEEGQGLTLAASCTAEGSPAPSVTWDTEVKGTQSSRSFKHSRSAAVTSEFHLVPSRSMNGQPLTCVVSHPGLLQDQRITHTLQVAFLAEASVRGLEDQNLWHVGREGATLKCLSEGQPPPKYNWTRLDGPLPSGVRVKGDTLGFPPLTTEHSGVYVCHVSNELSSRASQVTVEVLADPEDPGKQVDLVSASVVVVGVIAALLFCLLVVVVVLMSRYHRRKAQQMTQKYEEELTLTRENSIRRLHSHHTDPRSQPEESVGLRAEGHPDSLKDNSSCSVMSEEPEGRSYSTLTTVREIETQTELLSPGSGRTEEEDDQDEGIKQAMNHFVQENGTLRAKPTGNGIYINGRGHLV
T1 sequence (Q07011 24-186 partner): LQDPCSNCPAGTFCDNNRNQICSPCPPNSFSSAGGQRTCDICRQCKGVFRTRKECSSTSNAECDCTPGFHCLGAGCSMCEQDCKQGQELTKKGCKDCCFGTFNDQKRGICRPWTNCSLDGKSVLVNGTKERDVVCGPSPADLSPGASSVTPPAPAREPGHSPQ

Q: Which results are given for `CCCC[C@@H]1NC(=O)[C@H](Cc2ccc(O)cc2)NC(=O)[C@@H]2CCCN2C(=O)[C@H](CC(=O)O)NC(=O)[C@H](C)NC(=O)[C@H](Cc2ccccc2)NC(=O)[C@@H]2CSCCC(=O)N3CN(CN(C3)C(=O)CCSC[C@@H](C(=O)N[C@@H](C)C(N)=O)NC1=O)C(=O)CCSC[C@H](NC(C)=O)C(=O)N[C@@H](CC(C)(C)C)C(=O)N1CCC[C@H]1C(=O)N[C@@H](CCC(=O)O)C(=O)N[C@H](CCCCNC(=O)CCc1cn(CCOCCOCCOCCN(CCOCCOCCOCCC(=O)N[C@H]3CSCCC(=O)N4CN5CN(C4)C(=O)CCSC[C@H](NC(=O)[C@@H](CC(=O)O)NC(=O)[C@H](Cc4cccc6ccccc46)NC(=O)[C@@H]4CCCN4C3=O)C(=O)N[C@@H](CCSC)C(=O)N[C@@H](CCCCNC(=N)N)C(=O)N[C@@H](CC(=O)O)C(=O)N[C@@H](Cc3c[nH]c4ccccc34)C(=O)N[C@@H](CO)C(=O)N[C@@H]([C@@H](C)O)C(=O)N3CCC[C@H]3C(=O)N3C[C@H](O)C[C@H]3C(=O)N[C@@H](Cc3c[nH]c4ccccc34)C(=O)N[C@H](C(N)=O)CSCCC5=O)CCOCCOCCOCCn3cc(CCC(=O)NCCCC[C@H]4NC(=O)[C@H](CCC(=O)O)NC(=O)[C@@H]5CCCN5C(=O)[C@H](CC(C)(C)C)NC(=O)[C@@H](NC(C)=O)CSCCC(=O)N5CN6CN(C5)C(=O)CCSC[C@H](NC(=O)[C@H](Cc5ccc(O)cc5)NC(=O)[C@@H]5CCCN5C4=O)C(=O)N[C@@H](Cc4ccccc4)C(=O)N[C@@H](C)C(=O)N[C@@H](CC(=O)O)C(=O)N4CCC[C@H]4C(=O)N[C@@H](Cc4ccc(O)cc4)C(=O)N[C@@H](CCCC)C(=O)N[C@H](C(=O)N[C@@H](C)C(N)=O)CSCCC6=O)nn3)nn1)C(=O)N1CCC[C@H]1C(=O)N[C@@H](Cc1ccc(O)cc1)C(=O)N2` [BCY11863]?
A: Kd (rat Nectin-4): 25 ± 2 nM; EC50 (human PBMCs; 4T1-D02 (mouse), 4 donors, read-out: IFNy (nM), EC50 of cytokine secretion): 0.04 ± 0.04 nM; EC50 (human PBMCs; 4T1-D02 (mouse), 4 donors, read-out: IL-2 (nM), EC50 of cytokine secretion): 0.16 ± 0.22 nM; EC50 (human PBMCs; 4T1-Parental (Nectin4-), read-out: IFNy (nM), EC50 of cytokine secretion): > 100 nM; EC50 (human PBMCs; 4T1-Parental (Nectin4-), read-out: IL-2 (nM), EC50 of cytokine secretion): > 100 nM; EC50 (human PBMCs; H322 (human), 3 donors, read-out: IFNy (nM), EC50 of cytokine secretion): 0.85 ± 0.66 nM; EC50 (human PBMCs; H322 (human), 3 donors, read-out: IL-2 (nM), EC50 of cytokine secretion): 0.84 ± 0.15 nM; EC50 (human PBMCs; HT1376 (human), 5 donors, read-out: IFNy (nM), EC50 of cytokine secretion): 0.23 ± 0.15 nM; EC50 (human PBMCs; HT1376 (human), 5 donors, read-out: IL-2 (nM), EC50 of cytokine secretion): 0.39 ± 0.29 nM; EC50 (human PBMCs; MC38 #13 (mouse), 4 donors, read-out: IFNy (nM), EC50 of cytokine secretion): 0.17 ± 0.11 nM; EC50 (human PBMCs; MC38 #13 (mouse), 4 donors, read-out: IL-2 (nM), EC50 of cytokine secretion): 0.25 ± 0.08 nM; IL-2 and IFN-γ cytokine secretion (human PBMCs; PBMC-4T1 (Nectin-4 engineered) co-culture, FIGS. 2A, 2B): induces robust IL-2 and IFN-γ cytokine secretion; EC50 (human PBMCs; T-47D (human), 3 donors, read-out: IFNy (nM), EC50 of cytokine secretion): 0.08 ± 0.06 nM; EC50 (human PBMCs; T-47D (human), 3 donors, read-out: IL-2 (nM), EC50 of cytokine secretion): 0.2 ± 0.07 nM; Clp ([1]; 100 mg/kg BCY11863 IV): 13 mL/min/kg; Vdss ([1]; 100 mg/kg BCY11863 IV): 2.3 L/kg; fraction metabolized to BCY15155 ([1]; IV administration of BCY11863, 100 mg/kg): < 1%; bioavailability from SC dosing ([1]; SC dosing): high; clearance (in words) ([1]; Table 6B): low clearance molecule; volume of distribution (in words) ([1]; Table 6B): volume of distribution larger than plasma volume; conversion to BCY14602 ([1]; first 24 h, IV BCY11863, 100 mg/kg): No significant conversion; half-life ([1]; male, SD, rat, plasma, 2 mg/kg, 2 mg/kg IV, n=3, read-out: terminal half life (converted)): 4.1 h; clearance ([1]; male, SD, rat, plasma, 2 mg/kg IV, n=3, read-out: clearance): 7.7 mL/min/kg; Vd ([1]; male, SD, rat, plasma, 2 mg/kg IV, n=3, read-out: volume of distribution at steady state (Vdss)): 1.6 L/kg; clearance ([1]; male, rat, plasma, SD rats, 1.9 mg/kg IV Bolus, read-out: Clp): 7.7 mL/min/kg; Vd ([1]; male, rat, plasma, SD rats, 1.9 mg/kg IV Bolus, read-out: Vdss): 1.6 L/kg; clearance ([1]; male, rat, plasma, SD rats, 3.2 mg/kg IV Inf (15 min), read-out: Clp): 9.3 mL/min/kg; Vd ([1]; male, rat, plasma, SD rats, 3.2 mg/kg IV Inf (15 min), read-out: Vdss): 1.3 L/kg; bioavailability ([1]; male, rat, plasma, SD rats, 6.3 mg/kg SC): 95%; Kd (cyno Nectin-4 [2]): 28 ± 5 nM; Kd (cyno Nectin-4 [3]; Direct Binding, biotinylated Nectin-4 extracellular domain, 25° C., read-out: SPR KD NHP (25° C.)): 27 ± 15 nM; Kd (cyno Nectin-4 [3]; biotinylated ECD captured on streptavidin chip, read-out: KD): 5 to 27 nM

Q: For “I: A[hArg]DC[Hyp]LVNPLCLEP[d1Nal]WTC-NH2 / II: Ac-C[tBuAla]PE[dK]PYCFADPY[Nle]CA-NH2 / III: Ac-C[tBuAla]PE[dK]PYCFADPY[Nle]CA-NH2 (linker I:4-I:11-I:18, II:1-II:8-II:15, III:1-III:8-III:15 via TATA; linker I:N-II:5-III:5 via X1) [BCY13272]”, which terminal half life ([1]; 3.6 mg/kg IV infusion (15 min), n=3) is on record?
A: The terminal half life was 2.9 h.

Q: What about the half-life ([1]; male, SD, rat, plasma, 3.6 mg/kg, 3.6 mg/kg IV infusion (15 min), n=3, read-out: terminal half life (converted)) of the same compound?
A: The half-life was 2.5 h.

Q: What about the half-life ([1]; male, SD, rat, plasma, IV Inf (15 minutes), read-out: T1/2 (converted)) of the same compound?
A: Its half-life is 2.5 h.

Q: And the clearance ([1]; male, SD, rat, plasma, 3.6 mg/kg IV infusion (15 min), n=3, read-out: clearance)?
A: The clearance was 7.5 mL/min/kg.

Q: What about the Vd ([1]; male, SD, rat, plasma, 3.6 mg/kg IV infusion (15 min), n=3, read-out: volume of distribution at steady state (Vdss)) of the same compound?
A: Its Vd is 1 L/kg.

Q: And the Vd ([1]; male, SD, rat, plasma, IV Inf (15 minutes), read-out: Vdss)?
A: Its Vd is 1 L/kg.

Q: And the EC50 (CD137; co-culture with HT-29)?
A: Its EC50 is 0.567 nM and 0.187 nM and 0.205 nM.

Q: What about the EC50 (CD137; co-culture with PC-3) of the same compound?
A: The EC50 was 0.0805 nM and 0.0898 nM and 0.245 nM.

Q: And the “CD137 activation in CD137 reporter assay” value (CD137; FIG. 16, PC3, A549 and HT29)?
A: Its value is “induces strong CD137 activation”.

Q: What about the Emax (CD137; co-culture with A549) of the same compound?
A: The Emax was 25.7 fold and 23.6 fold and 30.2 fold.

Q: What about the Emax (CD137; co-culture with HT-29) of the same compound?
A: The Emax was 36.5 fold and 26 fold and 36.4 fold.

Q: And the Emax (CD137; co-culture with PC-3)?
A: The Emax was 44.2 fold and 53 fold and 44.5 fold.
